target: activated p38 (Homo sapiens, UniProt Q16539); test: Inhibition of phosphorylation of EGF receptor peptide ("kinase"); format: biochemical; conditions: inhibition of phosphorylation of EGF receptor peptide by activated p38
Procedure: This assay was carried out in the presence of 10 mM MgCl2, 25 mM β-glycerophosphate, 10% glycerol and 100 mM HEPES buffer at pH 7.6. […] The stock solution was aliquotted into vials. A fixed volume of DMSO or inhibitor in DMSO (final concentration of DMSO in reaction was 5%) was introduced to each vial, mixed and incubated for 15 minutes at room temperature. EGF receptor peptide, […], a phosphoryl acceptor in p38-catalyzed kinase reaction (1), was added to each vial to a final concentration of 200 μM. The kinase reaction was initiated with ATP (100 μM) and the vials were incubated at 30° C. After 30 minutes, the reactions were quenched with equal volume of 10% trifluoroacetic acid (TFA).
The phosphorylated peptide was quantified by HPLC analysis. Separation of phosphorylated peptide from the unphosphorylated peptide was achieved on a reverse phase column (Deltapak, 5 μm, C18 100D, part no. 011795) with a binary gradient of water and acteonitrile, each containing 0.1% TFA.

Chain of activated p38 (Q16539 whole entry): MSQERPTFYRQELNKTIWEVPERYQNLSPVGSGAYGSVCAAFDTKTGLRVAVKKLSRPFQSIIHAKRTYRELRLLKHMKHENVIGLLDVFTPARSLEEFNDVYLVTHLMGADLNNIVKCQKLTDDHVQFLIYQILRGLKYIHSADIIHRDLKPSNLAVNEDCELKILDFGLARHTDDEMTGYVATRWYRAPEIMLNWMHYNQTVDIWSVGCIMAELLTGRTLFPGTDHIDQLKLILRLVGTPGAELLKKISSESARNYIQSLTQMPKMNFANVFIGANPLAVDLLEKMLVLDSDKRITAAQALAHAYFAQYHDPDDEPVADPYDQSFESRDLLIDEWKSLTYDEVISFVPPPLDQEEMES

Row | Structure (SMILES) | IC50 [nM]
1 | NC(=O)C(c1cccc(-c2ccccc2O)n1)c1c(Cl)cccc1Cl (stereo not drawn) [Compound 386] | ≥ 1000
2 | NC(=O)C(c1cccc(-c2c(F)cc(F)cc2F)n1)c1c(Cl)cccc1Cl (stereo not drawn) [Compound 399] | ≤ 100
3 | O=C(CN1CCOCC1)Nc1ccc(-c2c(=O)ncn3nc(Sc4ccc(F)cc4)ccc23)c(Cl)c1 [Compound 52] | 100 to 1000
4 | NC(=O)C(c1cccc(-c2cccc([N+](=O)[O-])c2)n1)c1c(Cl)cccc1Cl (stereo not drawn) [Compound 308] | ≥ 1000
5 | NC(=O)C(c1cccc(-c2ccc(C=O)cc2)n1)c1c(Cl)cccc1Cl (stereo not drawn) [Compound 316] | ≥ 1000
6 | NC(=O)C(c1cccc(-c2cccc(C=O)c2)n1)c1c(F)cccc1Cl (stereo not drawn) [Compound 342] | ≥ 1000
7 | NC(=O)C(c1ccc(Sc2ccccc2)nn1)c1ccc(Cl)cc1Cl (stereo not drawn) [Compound 203] | ≥ 1000
8 | Cc1cc(-c2cccc(C(C(N)=O)c3c(Cl)cccc3Cl)n2)ccc1F (stereo not drawn) [Compound 395] | ≤ 100
9 | NC(=O)C(c1cccc(-c2ccc(C=O)cc2)n1)c1c(F)cccc1Cl (stereo not drawn) [Compound 337] | ≥ 1000
10 | NC(=O)C(c1cccc(-c2ccc(F)cc2F)n1)c1c(Cl)cccc1Cl (stereo not drawn) [Compound 396] | ≤ 100
11 | NC(=O)C(c1cccc(-c2ccccc2Cl)n1)c1c(Cl)cccc1Cl (stereo not drawn) [Compound 375] | ≤ 100
12 | Cc1cccc(-c2cccc(C(C(N)=O)c3c(Cl)cccc3Cl)n2)c1C (stereo not drawn) [Compound 376] | ≤ 100
13 | Nc1cc(F)c(F)cc1SC1=NN2CNC(=O)C(c3c(Cl)cccc3Cl)=C2C=C1 [Compound 119] | 100 to 1000
14 | Cc1c(Cl)cccc1-c1cccc(C(C(N)=O)c2c(Cl)cccc2Cl)n1 (stereo not drawn) [Compound 1301] | ≤ 100
15 | NC(=O)C(c1cccc(-c2cccc(Cl)c2Cl)n1)c1c(Cl)cccc1Cl (stereo not drawn) [Compound 382] | ≤ 100
16 | COCOc1cc(F)ccc1-c1cccc(C(C(N)=O)c2c(Cl)cccc2Cl)n1 (stereo not drawn) [Compound 389] | 100 to 1000
17 | NC(=O)C(c1cccc(-c2ccc3ccccc3c2)n1)c1c(Cl)cccc1Cl (stereo not drawn) [Compound 354] | ≥ 1000
18 | NC(=O)C(c1cccc(-c2cccc(C(F)(F)F)c2)n1)c1c(Cl)cccc1Cl (stereo not drawn) [Compound 379] | ≤ 100
19 | NC(=O)C(c1cccc(-c2ccc(C(=O)O)cc2)n1)c1c(F)cccc1Cl (stereo not drawn) [Compound 336] | ≥ 1000
20 | NC(=O)C(c1cccc(-c2ccc(F)cc2C(F)(F)F)n1)c1c(Cl)cccc1Cl (stereo not drawn) [Compound 391] | 100 to 1000
21 | NC(=O)C(c1cccc(-c2ccc(F)cc2CO)n1)c1c(Cl)cccc1Cl (stereo not drawn) [Compound 394] | ≤ 100

Row | Structure (SMILES) | IC50 [nM]
22 | CSc1ccc(-c2cccc(C(C(N)=O)c3c(F)cccc3Cl)n2)cc1 (stereo not drawn) [Compound 334] | ≥ 1000
23 | CCc1ccccc1-c1cccc(C(C(N)=O)c2c(Cl)cccc2Cl)n1 (stereo not drawn) [Compound 377] | ≤ 100
24 | Cc1ccc(Sc2ccc(C(C(N)=O)c3ccc(Cl)cc3Cl)nn2)cc1 (stereo not drawn) [Compound 205] | ≥ 1000
25 | NC(=O)C(c1cccc(-c2cc3ccccc3o2)n1)c1c(Cl)cccc1Cl (stereo not drawn) [Compound 355] | ≥ 1000
26 | NC(=O)C(c1cccc(-c2cc3ccccc3s2)n1)c1c(Cl)cccc1Cl (stereo not drawn) [Compound 356] | ≥ 1000
27 | Cc1ccc(-c2cccc(C(C(N)=O)c3c(F)cccc3Cl)n2)cc1 (stereo not drawn) [Compound 331] | ≥ 1000
28 | COc1ccccc1-c1cccc(C(C(N)=O)c2c(F)cccc2Cl)n1 (stereo not drawn) [Compound 345] | ≥ 1000
29 | NC(=O)C(c1cccc(-c2cccc(C=O)c2)n1)c1c(Cl)cccc1Cl (stereo not drawn) [Compound 321] | ≥ 1000
30 | COCOCc1cc(F)ccc1-c1cccc(C(C(N)=O)c2c(Cl)cccc2Cl)n1 (stereo not drawn) [Compound 393] | 100 to 1000
31 | NCCNCc1ccccc1-c1cccc(C(C(N)=O)c2c(Cl)cccc2Cl)n1 (stereo not drawn) [Compound 359] | ≥ 1000
32 | O=c1ncn2nc(Sc3ccc(F)cc3Cl)ccc2c1-c1cc2c(cc1Cl)OCO2 [Compound 45] | 100 to 1000
33 | COc1cccc(-c2cccc(C(C(N)=O)c3c(F)cccc3Cl)n2)c1 (stereo not drawn) [Compound 343] | ≥ 1000
34 | NC(=O)C(c1cccc(-c2ccsc2)n1)c1c(Cl)cccc1Cl (stereo not drawn) [Compound 318] | 100 to 1000
35 | NC(=O)C(c1cccc(-c2cc(Cl)cc(Cl)c2)n1)c1c(Cl)cccc1Cl (stereo not drawn) [Compound 392] | 100 to 1000
36 | NC(=O)C(c1cccc(-c2cccs2)n1)c1c(F)cccc1Cl (stereo not drawn) [Compound 338] | ≥ 1000
37 | NC(=O)C(c1cncc(-c2ccccc2)n1)c1c(Cl)cccc1Cl (stereo not drawn) [Compound 384] | 100 to 1000
38 | NC(=O)C(c1cccc(-c2cc(F)c(F)c(F)c2)n1)c1c(Cl)cccc1Cl (stereo not drawn) [Compound 388] | ≤ 100
39 | CC(=O)Nc1ccc(-c2c(=O)ncn3nc(Sc4ccc(F)cc4)ccc23)c(Cl)c1 [Compound 51] | 100 to 1000
40 | Cc1cccc(C)c1C(C(N)=O)c1cccc(-c2ccccc2)n1 (stereo not drawn) [Compound 381] | 100 to 1000
41 | NC(=O)C(c1ccc(F)cc1)c1ccc(Sc2ccccc2)nn1 (stereo not drawn) [Compound 204] | ≥ 1000
42 | NC(=O)C(c1cccc(-c2cccc([N+](=O)[O-])c2)n1)c1c(F)cccc1Cl (stereo not drawn) [Compound 328] | ≥ 1000

Row | Structure (SMILES) | IC50 [nM]
43 | COc1ccc(-c2c(=O)ncn3nc(Sc4ccccc4)ccc23)cc1 [Compound 10] | ≥ 1000
44 | NC(=O)C(c1cccc(-c2ccc(C(F)(F)F)cc2)n1)c1c(F)cccc1Cl (stereo not drawn) [Compound 340] | ≥ 1000
45 | NC(=O)C(c1cccc(-c2ccccc2)n1)c1c(F)cccc1F (stereo not drawn) [Compound 366] | ≥ 1000
46 | NC(=O)C(c1cccc(-c2ccccc2C=O)n1)c1c(F)cccc1Cl (stereo not drawn) [Compound 348] | ≥ 1000
47 | NC(=O)C(c1cccc(-c2ccccc2C(F)(F)F)n1)c1c(Cl)cccc1Cl (stereo not drawn) [Compound 374] | 100 to 1000
48 | NC(=O)C(c1cccc(-c2ccc(C(=O)O)cc2)n1)c1c(Cl)cccc1Cl (stereo not drawn) [Compound 315] | ≥ 1000
49 | NC(=O)C(c1cccc(-c2ccccc2CNCC(O)CO)n1)c1c(Cl)cccc1Cl (stereo not drawn) [Compound 360] | ≥ 1000
50 | NC(=O)C(c1cccc(-c2ccc(Cl)s2)n1)c1c(F)cccc1Cl (stereo not drawn) [Compound 347] | ≥ 1000
51 | NC(=O)C(c1cccc(-c2ccccc2C=O)n1)c1c(Cl)cccc1Cl (stereo not drawn) [Compound 327] | 100 to 1000
52 | NC(=O)C(c1cccc(-c2ccc(Cl)s2)n1)c1c(Cl)cccc1Cl (stereo not drawn) [Compound 326] | ≥ 1000
53 | NC(=O)C(c1cccc(-c2ccccc2F)n1)c1c(Cl)cccc1Cl (stereo not drawn) [Compound 383] | ≤ 100
54 | NC(=O)C(c1cccc(-c2ccc(F)cc2O)n1)c1c(Cl)cccc1Cl (stereo not drawn) [Compound 390] | ≥ 1000
55 | NC(=O)C(c1ccc(Sc2ccc(F)cc2Cl)nn1)c1ccc(N)cc1Cl (stereo not drawn) [Compound 207] | ≥ 1000
56 | NC(=O)C(c1cccc(-c2occc2C=O)n1)c1c(F)cccc1Cl (stereo not drawn) [Compound 357] | ≥ 1000
57 | NC(=O)C(c1cccc(-c2ccccc2)n1)c1cc2c(cc1Cl)OCO2 (stereo not drawn) [Compound 397] | ≥ 1000
58 | COCOc1ccccc1-c1cccc(C(C(N)=O)c2c(Cl)cccc2Cl)n1 (stereo not drawn) [Compound 385] | 100 to 1000
59 | NC(=O)C(c1cccc(-c2cccc(CO)c2)n1)c1c(Cl)cccc1Cl (stereo not drawn) [Compound 380] | 100 to 1000
60 | NC(=O)C(c1cccc(-c2ccc(C(F)(F)F)cc2)n1)c1c(Cl)cccc1Cl (stereo not drawn) [Compound 319] | ≥ 1000
61 | NC(=O)C(c1cccc(-c2ccc(Cl)cc2)n1)c1c(F)cccc1Cl (stereo not drawn) [Compound 330] | ≥ 1000
62 | NC(=O)C(c1cccc(-c2cccc(F)c2)n1)c1c(F)cccc1Cl (stereo not drawn) [Compound 344] | ≥ 1000
63 | NC(=O)C(c1cccc(-c2cc(C(F)(F)F)cc(C(F)(F)F)c2)n1)c1c(Cl)cccc1Cl (stereo not drawn) [Compound 387] | ≥ 1000
